From patent US11779572B1, “Methods of treating gastrointestinal stromal tumors” (Deciphera Pharmaceuticals, LLC, priority 2022, dated 2023)

Legend:
GIST = assay: Phase 1 study, ripretinib 150 mg QD, second-line through fourth-line plus GIST (Example 3): efficacy; assay type: in vivo, human; conditions: for Best response (confirmed only): CR / Best response (confirmed only): PR / Best response (confirmed only): Progressive disease / Best response (confirmed only): Stable disease / ORR, n (95% CI) / PFS, Median: 150 mg QD; for ORR, n (95% CI): CR+PR; for PFS, Median: investigator assessment
Experimental: Efficacy and safety results from the escalation and expansion phases of a phase 1 study for patients with GIST treated at ripretinib 150 mg QD as the starting dose in 28-day cycles are presented. Local, investigator-assessed Response Evaluation Criteria in Solid Tumors (RECIST 1.1) response assessments were performed every 2 cycles, and patients in the expansion cohorts who progressed per RECIST 1.1 were allowed to dose escalate to 150 mg BID.
142 patients with GIST in the escalation and expansion phases were treated at 150 mg QD dose. Number of patients by line of therapy were as follows: 31 2nd line, 28 3rd line, and 83≥4th line patients. 135 patients (95.1%) had KIT-mutant GIST, and 7 patients (4.9%) had PDGFRA-mutant GIST.
For example, the confirmed-only complete response (CR), partial response (PR), stable disease, and progressive disease are presented in Table 4. The objective response rate data in Table 4 relates to the proportion of patients with CR+PR. The median PFS data in Table 4 refers to progression-free survival per investigator assessment, by line of therapy.
In Table 4: ^a64 subjects escalated to 150 mg BID among patients with GIST in the 150 mg QD dose group. CI, confidence interval; CR, complete response; NE, not estimable; ORR, objective response rate; PFS, progression-free survival; PR, partial response; SD, […]. Local (investigator) response assessment.

[1] = Coadministration with pantoprazole (proton-pump inhibitor); assay type: in vivo, human; conditions: 40 mg QD pantoprazole with 150 mg QD ripretinib
Experimental: The effect of a proton-pump inhibitor on the exposure of ripretinib was evaluated.

[2] = Food effect (high-fat meal) on exposure; assay type: in vivo, human; conditions: 150 mg dose of ripretinib
Experimental: The effect of a high-fat breakfast on ripretinib and Compound A exposure was evaluated. A high fat meal consisted of approximately 150, 250, and 500-600 calories from protein, carbohydrate, and fat, respectively. […] The food effect is not considered to be clinically significant based on exposure-response analysis. Therefore, ripretinib may be taken with or without food at approximately same time each day.

[3] = Unbound fraction / plasma protein binding; assay type: in vitro ADME, human; conditions: human, plasma, oral, 50 mg, healthy participants and participants with hepatic impairment; clinical samples; read-out: mean unbound fraction fu %
Source text: (§1) Both ripretinib and DP-5439 display high binding to plasma proteins in vitro; therefore, clinical samples were collected to investigate the effect of HI on the unbound fraction (fu) % for both analytes. Distributions of individual mean fu % for both ripretinib and DP-5439 show high variability between participants. The ripretinib mean fu % was ≤0.6% in healthy participants and in participants with hepatic impairment. The DP-5439 fu % was ≤0.5% in healthy participants and 0.2% to 1.4% in participants with hepatic impairment. No clear trend could be established between unbound ripretinib and DP-5439 PK parameters and the degrees of HI.

plasma proteins = assay: Unbound fraction / plasma protein binding; assay type: in vitro ADME, human
Source text: as §1

CYP2C8 = target: T1, CYP2C8 (Homo sapiens, UniProt P10632); assay: Contribution of CYP enzymes to metabolism, in vitro data; assay type: in vitro ADME; conditions: base model, based on in vitro data
T1 sequence (P10632 1-490): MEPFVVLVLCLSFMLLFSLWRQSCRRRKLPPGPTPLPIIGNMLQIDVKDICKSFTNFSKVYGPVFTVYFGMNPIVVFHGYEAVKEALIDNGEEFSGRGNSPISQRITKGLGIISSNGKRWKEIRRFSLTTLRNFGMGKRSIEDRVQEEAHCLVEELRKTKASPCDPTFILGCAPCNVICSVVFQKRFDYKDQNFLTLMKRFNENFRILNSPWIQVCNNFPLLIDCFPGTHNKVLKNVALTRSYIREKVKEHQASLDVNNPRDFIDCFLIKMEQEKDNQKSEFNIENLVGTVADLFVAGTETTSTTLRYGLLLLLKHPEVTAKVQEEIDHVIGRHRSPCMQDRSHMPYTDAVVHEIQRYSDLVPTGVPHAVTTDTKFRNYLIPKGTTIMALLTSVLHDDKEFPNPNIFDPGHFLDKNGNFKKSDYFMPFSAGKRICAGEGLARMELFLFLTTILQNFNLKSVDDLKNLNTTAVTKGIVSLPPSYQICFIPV
Source text: (§2) A PBPK model that included a mechanistic absorption model was developed.

CYP2D6 = CYP2D6 (Homo sapiens, UniProt P10635); assay: as above; assay type: in vitro ADME; conditions: base model, based on in vitro data
Sequence of CYP2D6 (P10635 whole entry): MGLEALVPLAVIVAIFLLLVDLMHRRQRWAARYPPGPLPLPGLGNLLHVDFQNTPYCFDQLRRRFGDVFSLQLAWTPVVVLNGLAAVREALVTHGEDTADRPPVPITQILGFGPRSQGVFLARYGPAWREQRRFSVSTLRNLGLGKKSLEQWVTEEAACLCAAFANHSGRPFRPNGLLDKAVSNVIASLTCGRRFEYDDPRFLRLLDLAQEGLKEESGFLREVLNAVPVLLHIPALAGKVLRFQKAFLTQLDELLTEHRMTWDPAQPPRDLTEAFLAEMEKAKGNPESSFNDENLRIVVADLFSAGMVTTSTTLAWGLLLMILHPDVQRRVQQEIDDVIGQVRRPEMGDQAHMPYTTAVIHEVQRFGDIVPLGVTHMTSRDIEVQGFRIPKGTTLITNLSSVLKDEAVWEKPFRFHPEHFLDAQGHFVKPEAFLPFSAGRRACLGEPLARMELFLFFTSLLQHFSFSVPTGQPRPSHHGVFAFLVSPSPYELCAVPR
Source text: as §2

CCn1c(=O)c(-c2cc(NC(=O)Nc3ccccc3)c(F)cc2Br)cc2cnc(NC)cc21 [ripretinib]
Best response (confirmed only): CR (GIST; 2nd Line (n = 31)): 0 n (%) | Best response (confirmed only): PR (GIST; 2nd Line (n = 31)): 6 (19.4) n (%) | Best response (confirmed only): Progressive disease (GIST; 2nd Line (n = 31)): 4 (12.9) n (%) | Best response (confirmed only): Stable disease (GIST; 2nd Line (n = 31)): 21 (67.7) n (%) | ORR, n (95% CI) (GIST; 2nd Line (n = 31)): 19.4 (7.5, 37.5) | PFS, Median (GIST; 2nd Line (n = 31)): 46.4 weeks | Best response (confirmed only): CR (GIST; 3rd Line (n = 28)): 0 n (%) | Best response (confirmed only): PR (GIST; 3rd Line (n = 28)): 4 (14.3) n (%) | Best response (confirmed only): Progressive disease (GIST; 3rd Line (n = 28)): 6 (21.4) n (%) | Best response (confirmed only): Stable disease (GIST; 3rd Line (n = 28)): 18 (64.3) n (%) | ORR, n (95% CI) (GIST; 3rd Line (n = 28)): 14.3 | PFS, Median (GIST; 3rd Line (n = 28)): 36.3 weeks | Best response (confirmed only): CR (GIST; ≥4th Line (n = 83)): 0 n (%) | Best response (confirmed only): PR (GIST; ≥4th Line (n = 83)): 6 (7.2) n (%) | Best response (confirmed only): Progressive disease (GIST; ≥4th Line (n = 83)): 22 (26.5) n (%) | Best response (confirmed only): Stable disease (GIST; ≥4th Line (n = 83)): 49 (59.0) n (%) | ORR, n (95% CI) (GIST; ≥4th Line (n = 83)): 7.2 (2.7, 15.1) | PFS, Median (GIST; ≥4th Line (n = 83)): 23.9 weeks | PFS of second and third-line patients with Exons 9, 11, 13 or 17 KIT mutations (GIST; FIG. 27): comparable PFS | clinical benefit after dose escalation to 150 mg BID (PFS1 vs PFS2) (GIST; regardless of line of therapy, FIG. 25): additional clinical benefit | plasma exposure when ripretinib is coadministered with pantoprazole [1]: No clinically significant differences | AUC0-24h higher with a high-fat meal [2]: 30% | Cmax higher with a high-fat meal [2]: 22% | fraction unbound [3]: ≤ 0.006 | binding to plasma proteins (plasma proteins; in vitro): high binding | impact of HI (albumin, ALP, ALT, AST, bilirubin changes) on unbound exposure (plasma proteins; visual assessment): did not appear to have an impact | share of metabolism assigned to CYP2C8 (CYP2C8): 23% | share of metabolism assigned to CYP2D6 (CYP2D6): 18%
